Data as given in patent US8552032B2, “Bicyclic derivatives useful as inhibitors of DPP-1” (Janssen Pharmaceutica NV, priority 2009, dated 2013).
pIC50: −log10 of the molar value.

molecular target: T1, recombinant human DPP-1 (Cathepsin C) (Homo sapiens, UniProt P53634); experiment: DPP-1 Inhibition Assay (in vitro), fluorogenic substrate GR-AMC; format: biochemical; conditions: 0.15 nM DPP-1, 10 uM GR-AMC, pH 7.0, room temperature; average value where tested multiple times
T1 construct: made in house
T1 sequence (P53634 25-463): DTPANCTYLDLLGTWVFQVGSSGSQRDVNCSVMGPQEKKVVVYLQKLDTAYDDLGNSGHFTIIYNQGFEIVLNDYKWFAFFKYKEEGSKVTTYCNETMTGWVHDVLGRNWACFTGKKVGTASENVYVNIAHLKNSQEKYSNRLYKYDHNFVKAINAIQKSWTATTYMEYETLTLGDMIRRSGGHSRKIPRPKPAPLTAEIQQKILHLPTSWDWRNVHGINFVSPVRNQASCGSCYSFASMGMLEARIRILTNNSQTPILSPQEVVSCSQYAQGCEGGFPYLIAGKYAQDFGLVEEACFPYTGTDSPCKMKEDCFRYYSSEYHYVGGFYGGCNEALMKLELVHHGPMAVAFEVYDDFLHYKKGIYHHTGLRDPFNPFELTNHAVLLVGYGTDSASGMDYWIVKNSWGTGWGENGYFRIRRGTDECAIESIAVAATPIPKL
Method: Test compounds were assessed for DPP-1 (Cathepsin C) inhibitory activity using a fluorogenic substrate, GR-AMC (Glycine-Arginine-amino-4-methylcoumarin, Bachem, 1-1215). The amount of amino-methylcoumarin released is proportional to the DPP-1 activity, and the reaction is monitored kinetically with a Molecular Devices plate reader using black 96-well plates.
All compounds were tested under room temperature conditions. The assay buffer consisted of 50 mM HEPES, pH 7.0, 100 mM NaCl, 2 mM glutathione (GSH), and 0.002% TWEEN 20. GSH and TWEEN 20 were added to the buffer fresh daily. Just prior to use, an in-house preparation of recombinant human DPP-1 (240 μM stock, MW 49.6 kD) was diluted 600-fold in assay buffer containing fresh 2 mM dithiothreitol (DTT) to activate the enzyme, then diluted into assay buffer (without DTT) 133-fold for a DPP-1 working solution of 3 nM. Test compounds were diluted in DMSO for 20× their final assay concentrations.
Additions to a 96-well black Costar 3915 plates were as follows: 90 μL of 11 μM GR-AMC, 5 μL test compound (followed by mixing), and 5 μL 3 nM DPP1 to start the reaction. Fluorescent reactions were monitored kinetically at 360 nm excitation, 440 nm emission on a Molecular Devices Spectramax XPS reader. The Softmax Pro software of the reader determined the initial velocity of the selected data (the first 3-5 minutes of the reaction), and the best linear regression fit of the initial kinetic data. Final assay conditions were 0.15 nM DPP-1, 10 uM GR-AMC, 50 mM HEPES, pH 7.0, 100 mM NaCl, 2 mM GSH, 0.002% TWEEN 20, 1 uM DTT, 5.0% DMSO. Initial velocity rates were plotted vs. test compound concentration by use of a four-parameter logistics equation (nonlinear regression, sigmoidal dose-response (variable slope), with fixed Hill (1.0) using GraphPad Prism® software for determination of DPP-1 IC50. Within-run assay coefficient of variation (CV) was generally <10%; between-run CV <20%.
Representative compounds of the present invention were tested according to the procedure as described above, with results as listed in Table 12, below.

Row | Structure (SMILES) | pIC50
1 | CC[C@H](N)C(=O)NCCCc1cc2cc(C(=O)Nc3ccc(OC)c(OC)c3)ccc2o1 [Compound 58] | 6.14
2 | CC[C@H](N)C(=O)NCCCc1cc2cc(C(=O)Nc3cccc4c3ncn4C)ccc2o1 [Compound 59] | 5.85
3 | CC[C@H](N)C(=O)NCCCc1cc2cc(C(=O)Nc3cc[nH]n3)ccc2[nH]1 [Compound 61] | 5.37
4 | CC[C@H](N)C(=O)NCCCc1cc2cc(C(=O)Nc3cc(-c4ccccc4)[nH]n3)ccc2[nH]1 [Compound 62] | 5.55
5 | CC[C@H](N)C(=O)NCCCc1cc2cc(C(=O)Nc3ncnc4[nH]ncc34)ccc2[nH]1 [Compound 63] | 5.60
6 | CC[C@H](N)C(=O)NCCCc1cc2cc(C(=O)Nc3cnc4ccccc4c3)ccc2o1 [Compound 64] | 6.46
7 | CC[C@H](N)C(=O)NCCCc1cc2cc(C(=O)Nc3cccc4cnccc34)ccc2o1 [Compound 65] | 6.32
8 | CC[C@H](N)C(=O)NCCCc1cc2cc(C(=O)Nc3cccc4cccnc34)ccc2o1 [Compound 66] | 6.04
9 | CC[C@H](N)C(=O)NCCCc1cc2cc(C(=O)Nc3ccc4ncccc4c3)ccc2o1 [Compound 67] | 6.70
10 | CC[C@H](N)C(=O)NCCCc1cc2cc(C(=O)Nc3cccc4ccncc34)ccc2o1 [Compound 68] | 6.15
11 | CC[C@H](N)C(=O)NCCCc1cc2cc(C(=O)N3CCCc4ccccc43)ccc2o1 [Compound 71] | 5.59
12 | CC[C@H](N)C(=O)NCCCc1cc2cc(C(=O)Nc3ccc4[nH]cnc4c3)ccc2o1 [Compound 72] | 5.62
13 | CC[C@H](N)C(=O)NCCCc1cc2cc(C(=O)NC3CCNc4ccccc43)ccc2o1 (some centres unmarked) [Compound 73] | 5.74
14 | CC[C@H](N)C(=O)NCCCc1cc2cc(C(=O)O)ccc2o1 [Compound 74] | < 5.00
15 | CC[C@H](N)C(=O)NCCCc1cc2cc(C(=O)Nc3ccc(C)cc3)ccc2[nH]1 [Compound 75] | 5.96
16 | CC[C@H](N)C(=O)NCCCc1cc2cc(C(=O)Nc3ccc(OC)cc3)ccc2[nH]1 [Compound 77] | 6.46
17 | CC[C@H](N)C(=O)NCCCc1cc2cc(C(=O)Nc3ccc(C(C)(C)C)cc3)ccc2[nH]1 [Compound 78] | 6.04
18 | CC[C@H](N)C(=O)NCCCc1cc2cc(C(=O)Nc3ccc(F)cc3)ccc2[nH]1 [Compound 79] | 5.89
19 | CC[C@H](N)C(=O)NCCCc1cc2cc(C(=O)Nc3ccc(C(C)C)cc3)ccc2[nH]1 [Compound 80] | 6.17
20 | CC[C@H](N)C(=O)NCCCc1cc2cc(C(=O)Nc3ccc(F)c(F)c3)ccc2[nH]1 [Compound 81] | 6.10
21 | CC[C@H](N)C(=O)NCCCc1cc2cc(C(=O)Nc3ccc(C)c(C)c3)ccc2[nH]1 [Compound 83] | 6.25
22 | CC[C@H](N)C(=O)NCCCc1cc2cc(C(=O)N3CCc4ccccc4C3)ccc2o1 [Compound 84] | 6.00
23 | CC[C@H](N)C(=O)NCCCc1cc2cc(C(=O)Nc3cccc4[nH]cnc34)ccc2o1 [Compound 85] | 5.62
24 | CC[C@H](N)C(=O)NCCCc1cc2cc(C(=O)Nc3ccc4c(c3)S(=O)(=O)C=C4)ccc2o1 [Compound 86] | 6.00
25 | CC[C@H](N)C(=O)NCCCc1cc2cc(C(=O)Nc3ccccc3F)ccc2[nH]1 [Compound 87] | 5.59
26 | CC[C@H](N)C(=O)NCCCc1cc2cc(C(=O)Nc3ccccc3OC)ccc2[nH]1 [Compound 88] | 6.00
27 | CC[C@H](N)C(=O)NCCCc1cc2cc(C(=O)Nc3ccccc3C(C)C)ccc2[nH]1 [Compound 89] | 5.92
28 | CC[C@H](N)C(=O)NCCCc1cc2cc(C(=O)Nc3cccc(F)c3)ccc2[nH]1 [Compound 90] | 6.05

The remaining lines, values ahead:

Row | pIC50 | Structure (SMILES)
29 | 6.10 | CC[C@H](N)C(=O)NCCCc1cc2cc(C(=O)Nc3cccc(Cl)c3)ccc2[nH]1 [Compound 91]
30 | 6.46 | CC[C@H](N)C(=O)NCCCc1cc2cc(C(=O)Nc3cccc(OC)c3)ccc2[nH]1 [Compound 92]
31 | 6.04 | CC[C@H](N)C(=O)NCCCc1cc2cc(C(=O)Nc3cccc(C)c3)ccc2[nH]1 [Compound 93]
32 | 5.82 | CC[C@H](N)C(=O)NCCCc1cc2cc(C(=O)Nc3cc(OC)cc(OC)c3)ccc2o1 [Compound 94]
33 | 6.37 | CC[C@H](N)C(=O)NCCCc1cc2cc(C(=O)Nc3c(C)cccc3C)ccc2o1 [Compound 95]
34 | 6.43 | CC[C@H](N)C(=O)NCCCc1cc2cc(-c3cc(OC)cc(OC)c3)ccc2[nH]1 [Compound 96]
35 | 7.62 | COc1ccc(NC(=O)c2ccc3[nH]c(CCCNC(=O)[C@@H](N)Cc4cccs4)cc3c2)cc1OC [Compound 97]
36 | 6.32 | CC[C@H](N)C(=O)NCCCc1cc2cc(Oc3ccccc3)ccc2[nH]1 [Compound 98]
37 | 6.38 | CC[C@H](N)C(=O)NCCCc1cc2cc(Oc3ccc(OC)c(OC)c3)ccc2[nH]1 [Compound 99, (S)-2-amino-N-(3-(5-(3,4-dimethoxyphenoxy)-1H-indol-2-yl)propyl)butanamide]
38 | 6.28 | CC[C@H](N)C(=O)NCCCc1cc2cc(-c3ccccc3)ccc2[nH]1 [Compound 100]
39 | 6.10 | CC[C@H](N)C(=O)NCCCc1cc2cc(-c3ccc(F)cc3)ccc2[nH]1 [Compound 101]
40 | 6.15 | CC[C@H](N)C(=O)NCCCc1cc2cc(-c3ccc(C(F)(F)F)cc3)ccc2[nH]1 [Compound 102]
41 | 6.41 | CC[C@H](N)C(=O)NCCCc1cc2cc(-c3cccc(C(N)=O)c3)ccc2[nH]1 [Compound 103]
42 | 6.47 | CC[C@H](N)C(=O)NCCCc1cc2cc(-c3ccc(OC)cc3)ccc2[nH]1 [Compound 104]
43 | 6.07 | CC[C@H](N)C(=O)NCCCc1cc2cc(-c3ccc(OC(F)(F)F)cc3)ccc2[nH]1 [Compound 105]
44 | 7.09 | COc1ccc(NC(=O)c2ccc3[nH]c(CCCN(C)C(=O)[C@@H](N)Cc4cccs4)cc3c2)cc1OC [Compound 106, (S)-2-(3-(2-amino-N-methyl-3-(thiophen-2-yl)propanamido)propyl)-N-(3,4-dimethoxyphenyl)-1H-indole-5-carboxamide]
45 | 5.05 | CC[C@H](N)C(=O)N(C)CCCc1cc2cc(C(=O)Nc3ccc(OC)c(OC)c3)ccc2[nH]1 [Compound 107]
46 | 6.12 | CC[C@H](N)C(=O)NCCCc1cc2cc(-c3cc(C(F)(F)F)cc(C(F)(F)F)c3)ccc2[nH]1 [Compound 109]
47 | 6.16 | CC[C@H](N)C(=O)NCCCc1cc2cc(-c3ccc(C(N)=O)cc3)ccc2[nH]1 [Compound 111]
48 | 6.28 | CC[C@H](N)C(=O)NCCCc1cc2cc(-c3ccc4c(c3)OCO4)ccc2[nH]1 [Compound 112]
49 | 6.15 | CC[C@H](N)C(=O)NCCCc1cc2cc(-c3cccc(S(N)(=O)=O)c3)ccc2[nH]1 [Compound 113]
50 | 6.17 | CC[C@H](N)C(=O)NCCCc1cc2cc(-c3ccncc3)ccc2[nH]1 [Compound 114]
51 | 5.70 | CC[C@H](N)C(=O)NCCCc1cc2cc(-c3ccccc3C(N)=O)ccc2[nH]1 [Compound 116]
52 | 7.09 | COc1ccc(NC(=O)c2ccc3[nH]c(CCCNC(=O)[C@@H](N)Cc4nccs4)cc3c2)cc1OC [Compound 117, (S)-2-(3-(2-amino-3-(thiazol-2-yl)propanamido)propyl)-N-(3,4-dimethoxyphenyl)-1H-indole-5-carboxamide]
53 | 6.43 | CCN(CCCc1cc2cc(C(=O)Nc3ccc(OC)c(OC)c3)ccc2[nH]1)C(=O)[C@@H](N)Cc1cccs1 [Compound 118]
